Ten compounds from patent US9073925B2, “Azinone-substituted azabicycloalkane-indole and azabicycloalkane-pyrrolo-pyridine MCH-1 antagonists, methods of making, and use thereof” (Albany Molecular Research, Inc., priority 2009, dated 2015) can be followed below.

Structures are written as SMILES. Where a name gives a salt, the structure may show the parent alone.

The assay concerns the target human MCH-1 receptor (Homo sapiens (Human), UniProt Q99705). Put plainly: Binding assay for human melanin-concentrating hormone (MCH1) receptor. The note with it: membranes from CHO-K1 cells expressing human MCH-1 receptor; 1.4 nM [3H]-labeled radioligand; 60 min at 25° C.; Ki by Cheng Prusoff. As for the experimental part:
Evaluation of the affinity of compounds for the human MCH-1 receptor was accomplished using 4-(3,4,5-tritritiumbenzyloxy)-1-(1-(2-(pyrrolidin-1-yl)ethyl)-1H-indazol-5-yl)pyridin-2(1H)-one and membranes prepared from stable CHO-K1 cells expressing the human MCH-1 receptor obtained from Euroscreen (Batch 1138). Cell membrane homogenates (8.92 μg protein) were incubated for 60 min at 25° C. with 1.4 nM of the [^3H]-labeled compound in the absence or presence of the test compound in 50 mM Tris-HCl buffer, pH 7.4. Nonspecific binding was determined in the presence of 50 μM 1-(5-(4-cyanophenyl)bicyclo[3.1.0]hexan-2-yl)-3-(4-fluoro-3-(trifluoromethyl)phenyl)-1-(3-(4-methylpiperazin-1-yl)propyl)urea. Following incubation, the samples were filtered rapidly under vacuum through Skatron 11731 filters, pre-soaked in 0.5% polyethylenimine, and washed with ice-cold 50 mM Tris-HCl buffer, pH 7.4, (wash setting 9,9,0) using a Skatron cell harvester. The filters were counted for radioactivity in a liquid scintillation counter (Tri-Carb 2100TR, Packard) using a scintillation cocktail (Ultima Gold MV, Perkin Elmer).
The results are expressed as a percent inhibition of the control radioligand specific binding. The IC50 value (concentration causing a half-maximal inhibition of control specific binding) and Hill coefficient (nH) were determined by non-linear regression analysis of the competition curve using Hill equation curve fitting. The inhibition constant (Ki) was calculated from the Cheng Prusoff equation: (Ki=IC50/(1+(L/KD)), where L=concentration of radioligand in the assay, and KD=affinity of the radioligand for the receptor.

Broadly, the Ki is a measure of affinity in units of concentration, obtained from inhibition or displacement. High values mean lower affinity, low ones higher affinity.

Chain of human MCH-1 receptor (Q99705 whole entry): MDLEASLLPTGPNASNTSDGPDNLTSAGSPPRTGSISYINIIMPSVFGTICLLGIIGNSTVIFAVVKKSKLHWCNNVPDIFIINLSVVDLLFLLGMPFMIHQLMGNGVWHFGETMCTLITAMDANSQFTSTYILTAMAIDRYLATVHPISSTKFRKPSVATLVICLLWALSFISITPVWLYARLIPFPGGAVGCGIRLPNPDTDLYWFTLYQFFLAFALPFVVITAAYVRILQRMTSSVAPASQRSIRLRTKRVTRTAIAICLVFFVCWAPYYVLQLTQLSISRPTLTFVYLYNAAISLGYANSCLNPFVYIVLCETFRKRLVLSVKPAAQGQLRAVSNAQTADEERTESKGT

In the case of `Cn1c2c(c3ccc(-n4ccc(OCc5ccccc5)cc4=O)cc31)CN1CCC2C1` (stereo not shown) [Example 2, 4-(Benzyloxy)-1-(6-methyl-3,4,5,6-tetrahydro-1H-2,5-methanoazepino[4,3-b]indol-8-yl)pyridin-2(1H)-one hydrochloride], affinity was put at a Ki of 6.4 nM. To `Cn1c2c(c3ccc(-n4ccc(OCc5ccccc5)cc4=O)cc31)CN1CCC2CC1` [Example 3, 4-(Benzyloxy)-1-(6-methyl-3,4,5,6-tetrahydro-1H-2,5-ethanoazepino[4,3-b]indol-8-yl)pyridin-2(1H)-one hydrochloride] belongs 5.9 nM; to `Cn1c2c(c3ccc(-n4ccc(OCc5ccc(F)cn5)cc4=O)cc31)CN1CCC2CC1` [Example 4, 4-((5-Fluoropyridin-2-yl)methoxy)-1-(6-methyl-3,4,5,6-tetrahydro-1H-2,5-ethanoazepino[4,3-b]indol-8-yl)pyridin-2(1H)-one hydrochloride], 44 nM. The figure for `Cn1c2c(c3ccc(-n4ccc(-c5ccc(C(F)(F)F)nn5)cc4=O)cc31)CN1CCC2CC1` [Example 5, 1-(6-Methyl-3,4,5,6-tetrahydro-1H-2,5-ethanoazepino[4,3-b]indol-8-yl)-4-(6-(trifluoromethyl)pyridazin-3-yl)pyridin-2(1H)-one hydrochloride] is 23 nM. Regarding `Cn1c2c(c3ccc(-n4ccc(-c5ccc(C(F)(F)F)cn5)cc4=O)cc31)CN1CCC2CC1` [Example 6, 1-(6-Methyl-3,4,5,6-tetrahydro-1H-2,5-ethanoazepino[4,3-b]indol-8-yl)-4-(5-(trifluoromethyl)pyridin-2-yl)pyridin-2(1H)-one hydrochloride], the inhibition constant (Ki) was found to be 123 nM. To `Cn1c2c(c3ccc(-n4ccc(OCc5ccc(C(F)(F)F)nc5)cc4=O)cc31)CN1CCC2CC1` [Example 7, 1-(6-Methyl-3,4,5,6-tetrahydro-1H-2,5-ethanoazepino[4,3-b]indol-8-yl)-4-((6-(trifluoromethyl)pyridin-3-yl)methoxy)pyridin-2(1H)-one hydrochloride] belongs 11 nM.

In the case of `Cn1c2c(c3ccc(-n4ccc(OCc5ccccc5)cc4=O)nc31)CN1CCC2CC1` [Example 8, 4-(Benzyloxy)-1-(10-methyl-7,8,9,10-tetrahydro-5H-6,9-ethanopyrido[3′,2′:4,5]pyrrolo[3,2-c]azepin-2-yl)pyridin-2(1H)-one hydrochloride], the affinity corresponds to a Ki of 29 nM. To `Cn1c2c(c3ccc(-n4ccc(OCc5ccc(F)cc5F)cc4=O)nc31)CN1CCC2CC1` [Example 9, 4-(2,4-Difluorobenzyloxy)-1-(10-methyl-7,8,9,10-tetrahydro-5H-6,9-ethanopyrido[3′,2′:4,5]pyrrolo[3,2-c]azepin-2-yl)pyridin-2(1H)-one hydrochloride] belongs 15 nM.

In turn, `Cn1c2c(c3ccc(-n4ccc(-c5ccc(C(F)(F)F)cc5)cc4=O)nc31)CN1CCC2CC1` [Example 10, 1-(10-Methyl-7,8,9,10-tetrahydro-5H-6,9-ethanopyrido[3′,2′:4,5]pyrrolo[3,2-c]azepin-2-yl)-4-(4-(trifluoromethyl)phenyl)pyridin-2(1H)-one hydrochloride] came in with an inhibition constant Ki of 15 nM. The figure for `Cn1c2c(c3ccc(-n4ccc(OCc5ccc(F)cn5)cc4=O)nc31)CN1CCC2CC1` [Example 11, 4-((5-Fluoropyridin-2-yl)methoxy)-1-(10-methyl-7,8,9,10-tetrahydro-5H-6,9-ethanopyrido[3′,2′:4,5]pyrrolo[3,2-c]azepin-2-yl)pyridin-2(1H)-one hydrochloride] is 25 nM.
